Data on 42 compounds can be found in patent publication US5428059A, “Benzopyran derivatives and an anti-allergic agent possessing the same as the active ingredient” (Dainippon Ink & Chemicals, Inc., priority 1991, dated 1995).

In this experiment the test system is Hartley-type male guinea pigs. Briefly: Guinea Pig Homogeneous Skin Passive Anaphylaxis Assay (PCA reaction). In kind it is in vivo, guinea pig (Hartley-type). Conditions: 10 mg/kg oral, 48 h after sensitization; for inhibition in vivo at 10 mg/kg: Cavia porcellus, read-out: Allergic reaction inhibitory index (%). The procedure:
In order to confirm the anti-allergic action of the compounds according to the present invention, as an anti-allergic action confirmation assay, the widely used Guinea Pig Homogeneous Skin Passive Anaphylaxis Assay (PCA Reaction Assay; Passive Cutaneous Anaphylaxis Reaction Assay) was carried out. The assay method used will be explained in the following.
Assay method: Hartley-type male guinea pigs (body weight: 250~300 g) were sensitized by the following procedure; a mixture of 2 μg of egg albumin (OVA) and 5 μg of aluminium hydroxide gel was administered intraperitoneally 3 times every 2 weeks, and the anti-OVA blood serum was manufactured.
The anti-blood serum obtained was then diluted 120 times using physiological saline solution, and then to groups each containing 6 shaved guinea pigs, was injected at a quantity of 0.05 ml respectively, into two positions in the back portion, inside the skin of each animal.
After the 48th hour of sensitization, 10 mg/kg of the test substance to be tested was orally administered, following which a mixture of 2 mg OVA and 5 mg of Evans Blue was administered by intraveneous injection into the hind leg, triggering the anaphylaxis reaction. As the positive control, Tranilast, a well known anti-allergic agent, was used, and in the same manner as the substances to be tested, 100 mg/kg of it was orally administered after the 48th hour of sensitization.
30 minutes after triggering the reaction, the animals were bled to death under ether anesthesia, and their back portion skins were peeled off. The long and short diameters of pigment leakage spots on the interior surface of the skins were measured, and the product of these (mm^2) were entered into formula 1 as "pigment leakage amount", from which the allergic reaction inhibitory index wins calculated. [formula]
I: Allergic reaction inhibitory index (%)
A: Pigment leakage amount of solvent control group
B: Pigment leakage amount of test substance group
C: Pigment leakage amount of […]

Regarding “3-(methoxy)-4-(decyloxy)-8-hydroxy-2H-1-benzopyran-2-one [Compound 99]”, the “Allergic reaction inhibitory index (%)” value came to 33%. On to `O=C(Oc1c(O)c2ccc(O)cc2oc1=O)c1ccccc1` [Compound 4, 3-(benzoyloxy)-4,7-dihydroxy-2H-1-benzopyran-2-one], for which the inhibition in vivo at 10 mg/kg came out at 43%. Same read-out and setting: next, `O=c1oc2cc(O)ccc2c(O)c1O` [Compound 5, 3,4,7-trihydroxy-2H-1-benzopyran-2-one]: 68%; `CC(=O)Oc1c(O)c2ccc(O)cc2oc1=O` [Compound 7, 3-(acetoxy)-4,7-(dihydroxy)-2H-1-benzopyran-2-one]: 48%. On the same count and under the same terms, next, `O=C(Oc1c(O)c(=O)oc2cc(O)ccc12)c1ccccc1` [Compound 8, 4-(benzoyloxy)-3,7-(dihydroxy)-2H-1-benzopyran-2-one]: 40%; `CCCCCCCCCCOc1c(O)c(=O)oc2cc(O)ccc12` [Compound 9, 4-(decyloxy)-3,7-(dihydroxy)-2H-1-benzopyran-2-one]: 39%; `CC(=O)Oc1c(OC(=O)c2ccccc2)c2ccc(O)cc2oc1=O` [Compound 10, 3-(acetoxy)-4-(benzoyloxy)-7-hydroxy-2H-1-benzopyran-2-one]: 30%. Still for that read-out and setting: next, `CC(=O)Oc1ccc2c(OC(C)=O)c(OC(C)=O)c(=O)oc2c1` [Compound 11, 3,4,7-(triacetoxy)-2H-1-benzopyran-2-one]: 31%; `CCCCCCCCCCOc1c(OC(C)=O)c(=O)oc2cc(O)ccc12` [Compound 12, 3-(acetoxy)-4-(decyloxy)-7-hydroxy-2H-1-benzopyran-2-one]: 30%; `CC(C)Oc1c(OC(=O)c2ccccc2)c2ccc(O)cc2oc1=O` [Compound 13, 3-(isopropoxy)-4-(benzoyloxy)-7-hydroxy-2H-1-benzopyran-2-one]: 32%.

Consider `COc1c(O)c2ccc(O)cc2oc1=O` [Compound 14, 3-(methoxy)-4,7-(dihydroxy)-2H-1-benzopyran-2-one], for which the inhibition in vivo at 10 mg/kg came out at 47%. On the same count and under the same terms, next, `CC(C)Oc1c(O)c2ccc(O)cc2oc1=O` [Compound 15, 3-(isopropoxy)-4,7-(dihydroxy)-2H-1-benzopyran-2-one]: 41%. Same read-out and setting: next, `CCCCCCCCCCOc1c(O)c2ccc(O)cc2oc1=O` [Compound 16, 3-(decyloxy)-4,7-(dihydroxy)-2H-1-benzopyran-2-one]: 40%; `COc1c(OC)c2ccc(O)cc2oc1=O` [Compound 17, 3,4-(dimethoxy)-7-hydroxy-2H-1-benzopyran-2-one]: 31%; `COc1c(OC(C)C)c2ccc(O)cc2oc1=O` [Compound 18, 3-(methoxy)-4-(isopropoxy)-7-hydroxy-2H-1-benzopyran-2-one]: 30%.

Regarding `CC(C)=CCC/C(C)=C/COc1c(O)c2ccc(O)cc2oc1=O` [Compound 19, 3-(geranyloxy)-4,7-(dihydroxy)-2H-1-benzopyran-2-one], the inhibition in vivo at 10 mg/kg worked out at 42%. Consider `CC(C)=CCC/C(C)=C/COc1c(O)c(=O)oc2cc(O)ccc12` [Compound 20, 3,7-(dihydroxy)-4-(geranyloxy)-2H-1-benzopyran-2-one], for which the inhibition in vivo at 10 mg/kg worked out at 30%.

Consider `CC(=O)Oc1c(OC/C=C(\C)CCC=C(C)C)c(=O)oc2cc(O)ccc12` [Compound 21, 3-(geranyloxy)-4-(acetoxy)-7-hydroxy-2H-1-benzopyran-2-one], for which the inhibition in vivo at 10 mg/kg was found to be 33%. As to `CC(=O)Oc1ccc2c(OC(C)=O)c(OC/C=C(\C)CCC=C(C)C)c(=O)oc2c1` [Compound 22, 3-(geranyloxy)-4,7-(diacetoxy)-2H-1-benzopyran-2-one], the “Allergic reaction inhibitory index (%)” value was determined as 31%. As to `CC(C)=CCC/C(C)=C/COc1c(OC(=O)c2ccccc2)c(=O)oc2cc(O)ccc12` [Compound 23, 3-(benzoyloxy)-4-(geranyloxy)-7-hydroxy-2H-1-benzopyran-2-one], the inhibition in vivo at 10 mg/kg stood at 30%.

With `COc1c(OC/C=C(\C)CCC=C(C)C)c(=O)oc2cc(O)ccc12` [Compound 24, 3-(geranyloxyl)-4-(methoxy)-7-hydroxy-2H-1-benzopyran-2-one], the inhibition in vivo at 10 mg/kg came out at 33%.

`CC(C)=CCC/C(C)=C/COc1c(OC(C)C)c(=O)oc2cc(O)ccc12` [Compound 25, 3-(isopropoxy)-4-(geranyloxy)-7-hydroxy-2H-1-benzopyran-2-one]: the inhibition in vivo at 10 mg/kg amounted to 32%. The same measure, in the same setting: next, `CC(C)=CCC/C(C)=C/COc1c(OC/C=C(\C)CCC=C(C)C)c2ccc(O)cc2oc1=O` [Compound 26, 3,4-(digeranyloxy)-7-hydroxy-2H-1-benzopyran-2-one]: 30%; `COc1ccc2c(O)c(OC(=O)c3ccccc3)c(=O)oc2c1` [Compound 27, 3-(benzoyloxy)-4-hydroxy-7-(methoxy)-2H-1-benzopyran-2-one]: 40%. On the same count and under the same terms, next, `COc1ccc2c(O)c(O)c(=O)oc2c1` [Compound 28, 3,4-dihydroxy-7-(methoxy)-2H-1-benzopyran-2-one]: 53%; `COc1ccc2c(O)c(OC(C)=O)c(=O)oc2c1` [Compound 29, 3-(acetoxy)-4-hydroxy-7-(methoxy)-2H-1-benzopyran-2-one]: 46%; `COc1ccc2c(OC(=O)c3ccccc3)c(OC)c(=O)oc2c1` [Compound 30, 3,7-(dimethoxy)-4-(benzoyloxy)-2H-1-benzopyran-2-one]: 31%. Same read-out and setting: next, `COc1ccc2c(OC(C)=O)c(O)c(=O)oc2c1` [Compound 31, 3-hydroxy-4-(acetoxy)-7-(methoxy)-2H-1-benzopyran-2-one]: 38%; `COc1ccc2c(OC(C)C)c(OC(C)=O)c(=O)oc2c1` [Compound 32, 3-(acetoxy)-4-(isopropoxy)-7-(methoxy)-2H-1-benzopyran-2-one]: 33%; `COc1ccc2c(OC)c(O)c(=O)oc2c1` [Compound 33, 3-hydroxy-4,7-(dimethoxy)-2H-1-benzopyran-2-one]: 33%. In the case of `COc1ccc2c(O)c(OC(C)C)c(=O)oc2c1` [Compound 34, 3-(isopropoxy)-4-hydroxy-7-(methoxy)-2H-1-benzopyran-2-one], the inhibition in vivo at 10 mg/kg was 39%.

In the case of `COc1ccc2c(OC(C)=O)c(OC(=O)c3ccccc3)c(=O)oc2c1` [Compound 35, 3-(benzoyloxy)-4-(acetoxy)-7-(methoxy)-2H-1-benzopyran-2-one], the inhibition in vivo at 10 mg/kg was 30%.

Consider `CCCCCCCCCCOc1c(OC)c(=O)oc2cc(OC)ccc12` [Compound 36, 3,7-(dimethoxy)-4-(decyloxy)-2H-1-benzopyran-2-one], for which the inhibition in vivo at 10 mg/kg turned out to be 30%. Still for that read-out and setting: next, `COc1ccc2c(O)c(OC/C=C(\C)CCC=C(C)C)c(=O)oc2c1` [Compound 37, 3-(geranyloxy)-4-hydroxy-7-(methoxy)-2H-1-benzopyran-2-one]: 40%; `COc1ccc2c(OC/C=C(\C)CCC=C(C)C)c(O)c(=O)oc2c1` [Compound 38, 3-hydroxy-4-(geranyloxy)-7-(methoxy)-2H-1-benzopyran-2-one]: 31%; `COc1ccc2c(OC(=O)c3ccccc3)c(OC/C=C(\C)CCC=C(C)C)c(=O)oc2c1` [Compound 39, 3-(geranyloxy)-4-(benzoyloxy)-7-(methoxy)-2H-1-benzopyran-2-one]: 30%. Turning to `COc1ccc2c(OC/C=C(\C)CCC=C(C)C)c(OC(C)=O)c(=O)oc2c1` [Compound 40, 3-(acetoxy)-4-(geranyloxy)-7-(methoxy)-2H-1-benzopyran-2-one], the inhibition in vivo at 10 mg/kg is 34%. Same read-out and setting: next, `COc1ccc2c(OC(C)C)c(OC/C=C(\C)CCC=C(C)C)c(=O)oc2c1` [Compound 41, 3-(geranyloxy)-4-(isopropoxy)-7-(methoxy)-2H-1-benzopyran-2-one]: 30%; `COc1ccc2c(OC/C=C(\C)CCC=C(C)C)c(OC)c(=O)oc2c1` [Compound 42, 3,7-(dimethoxy)-4-(geranyloxy)-2H-1-benzopyran-2-one]: 33%; `COc1ccc2c(OC/C=C(\C)CCC=C(C)C)c(OC/C=C(\C)CCC=C(C)C)c(=O)oc2c1` [Compound 43, 3,4-(digeranyloxy)-7-(methoxy)-2H-1-benzopyran-2-one]: 30%. In the case of `CC(C)Oc1ccc2c(O)c(OC(=O)c3ccccc3)c(=O)oc2c1` [Compound 44, 3-(benzoyloxy)-4-(hydroxy)-7-(isopropoxy)-2H-1-benzopyran-2-one], the inhibition in vivo at 10 mg/kg came to 37%. Still for that read-out and setting: next, `CC(C)Oc1ccc2c(O)c(O)c(=O)oc2c1` [Compound 45, 3,4-dihydroxy-7-(isopropoxy)-2H-1-benzopyran-2-one]: 58%.
